Laboratory results as given in the NIST ThermoML archive (doi:10.1021/je800330d).
Numbers after ± are expanded uncertainties.

How the values were obtained:
[1] = mn = molality of the nth substance listed, in mol/kg; conditions: 101 kPa, Liquid, Capillary tube (Ostwald / Ubbelohde) method
[2] = xn = mol fraction of the nth substance listed; conditions: 101 kPa, Liquid, Capillary tube (Ostwald / Ubbelohde) method
[3] = 101 kPa, Liquid, Capillary tube (Ostwald / Ubbelohde) method

viscosity ([1]; 298.15 K, m1 = 0.0081) | viscosity ([1]; 298.15 K, m1 = 0.0099) | viscosity ([1]; 298.15 K, m1 = 0.0201) | viscosity ([1]; 298.15 K, m1 = 0.0402) | viscosity ([1]; 298.15 K, m1 = 0.0599) | viscosity ([1]; 298.15 K, m1 = 0.0802) | viscosity ([1]; 298.15 K, m1 = 0.1) | viscosity ([1]; 308.15 K, m1 = 0.0081) | viscosity ([1]; 308.15 K, m1 = 0.0099) | viscosity ([1]; 308.15 K, m1 = 0.0201) | viscosity ([1]; 308.15 K, m1 = 0.0402) | viscosity ([1]; 308.15 K, m1 = 0.0599) | viscosity ([1]; 308.15 K, m1 = 0.0802) | viscosity ([1]; 308.15 K, m1 = 0.1) | further results | Compound
0.904 ± 0.012 mPa·s | 0.908 ± 0.012 mPa·s | 0.927 ± 0.012 mPa·s | 0.967 ± 0.012 mPa·s | 1.008 ± 0.013 mPa·s | 1.05 ± 0.013 mPa·s | 1.093 ± 0.014 mPa·s | 0.729 ± 0.01 mPa·s | 0.732 ± 0.01 mPa·s | 0.747 ± 0.01 mPa·s | 0.777 ± 0.01 mPa·s | 0.807 ± 0.01 mPa·s | 0.839 ± 0.011 mPa·s | 0.87 ± 0.011 mPa·s | – | O=S(=O)([O-])[O-].O=S(=O)([O-])[O-].O=S(=O)([O-])[O-].[Al+3].[Al+3] [aluminum sulfate] + O
0.897 ± 0.012 mPa·s | 0.898 ± 0.012 mPa·s | 0.902 ± 0.012 mPa·s | 0.908 ± 0.012 mPa·s | 0.913 ± 0.012 mPa·s | 0.918 ± 0.012 mPa·s | 0.922 ± 0.012 mPa·s | 0.725 ± 0.009 mPa·s | 0.726 ± 0.009 mPa·s | 0.729 ± 0.01 mPa·s | 0.735 ± 0.01 mPa·s | 0.74 ± 0.01 mPa·s | 0.744 ± 0.01 mPa·s | 0.748 ± 0.01 mPa·s | – | N.N.O=S(=O)(O)O [ammonium sulfate] + O
– | – | – | – | – | – | – | – | – | – | – | – | – | – | viscosity ([2]; 298.15 K, x1 = 0.05): 1.002 ± 0.013 mPa·s; viscosity ([2]; 298.15 K, x1 = 0.1): 1.126 ± 0.014 mPa·s; viscosity ([2]; 298.15 K, x1 = 0.15): 1.258 ± 0.016 mPa·s; viscosity ([2]; 298.15 K, x1 = 0.2): 1.391 ± 0.018 mPa·s; viscosity ([2]; 308.15 K, x1 = 0.05): 0.797 ± 0.01 mPa·s; viscosity ([2]; 308.15 K, x1 = 0.1): 0.891 ± 0.011 mPa·s; viscosity ([2]; 308.15 K, x1 = 0.15): 0.984 ± 0.013 mPa·s; viscosity ([2]; 308.15 K, x1 = 0.2): 1.08 ± 0.014 mPa·s | CN(C)C=O [dimethylformamide] + O
0.895 ± 0.012 mPa·s | 0.896 ± 0.012 mPa·s | 0.899 ± 0.012 mPa·s | 0.905 ± 0.012 mPa·s | 0.909 ± 0.012 mPa·s | 0.914 ± 0.012 mPa·s | 0.918 ± 0.012 mPa·s | 0.723 ± 0.009 mPa·s | 0.724 ± 0.009 mPa·s | 0.727 ± 0.009 mPa·s | 0.732 ± 0.01 mPa·s | 0.737 ± 0.01 mPa·s | 0.742 ± 0.01 mPa·s | 0.746 ± 0.01 mPa·s | – | O=S(=O)([O-])[O-].[K+].[K+] [potassium sulfate] + O
– | – | – | – | – | – | – | – | – | – | – | – | – | – | viscosity ([3]; 298.15 K): 0.89 ± 0.011 mPa·s; viscosity ([3]; 308.15 K): 0.719 ± 0.009 mPa·s | O [water]
